Measured values as given in patent US8067413B2, “9-substituted-8-oxo-adenine compounds as toll-like receptor (TLR7 ) modulators” (AstraZeneca AB, priority 2007, dated 2011).
pEC50: −log10 of the molar value.

Target: T1, Recombinant human TLR7 (Homo sapiens, UniProt Q9NYK1)
T1 construct: expressed in transfected cells; host or cells: HEK293 cell line stably expressing the pNiFty2-SEAP reporter plasmid; TLR7 in pUNO vector
T1 sequence (Q9NYK1 27-1049): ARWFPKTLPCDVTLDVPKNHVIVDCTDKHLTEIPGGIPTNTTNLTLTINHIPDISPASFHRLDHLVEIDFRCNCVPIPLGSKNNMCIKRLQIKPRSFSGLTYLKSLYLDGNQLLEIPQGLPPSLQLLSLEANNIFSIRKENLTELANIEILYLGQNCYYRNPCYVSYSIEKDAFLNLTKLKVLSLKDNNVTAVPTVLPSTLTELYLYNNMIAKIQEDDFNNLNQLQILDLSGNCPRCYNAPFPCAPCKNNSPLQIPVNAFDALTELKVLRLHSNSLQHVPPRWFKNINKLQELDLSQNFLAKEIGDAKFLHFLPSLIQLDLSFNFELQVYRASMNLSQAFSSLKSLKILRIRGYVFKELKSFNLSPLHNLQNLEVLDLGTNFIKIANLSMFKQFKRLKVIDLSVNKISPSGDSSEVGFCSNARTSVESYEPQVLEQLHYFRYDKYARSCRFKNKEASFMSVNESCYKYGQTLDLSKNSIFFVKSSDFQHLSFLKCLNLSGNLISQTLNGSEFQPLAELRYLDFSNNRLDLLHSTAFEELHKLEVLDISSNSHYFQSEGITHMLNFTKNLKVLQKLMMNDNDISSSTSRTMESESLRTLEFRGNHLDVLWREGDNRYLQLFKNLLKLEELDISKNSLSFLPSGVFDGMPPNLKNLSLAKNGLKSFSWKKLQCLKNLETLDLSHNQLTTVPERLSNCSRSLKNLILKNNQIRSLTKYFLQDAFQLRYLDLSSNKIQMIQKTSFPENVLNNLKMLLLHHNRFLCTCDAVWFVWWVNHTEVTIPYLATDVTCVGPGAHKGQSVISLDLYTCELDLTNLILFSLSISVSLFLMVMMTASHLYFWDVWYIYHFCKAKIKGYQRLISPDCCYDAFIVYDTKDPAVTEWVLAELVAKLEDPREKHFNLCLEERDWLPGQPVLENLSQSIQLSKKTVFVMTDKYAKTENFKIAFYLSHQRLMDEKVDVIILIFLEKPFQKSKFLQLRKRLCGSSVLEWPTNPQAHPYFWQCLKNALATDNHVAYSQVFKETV
Experiment: Human TLR7 Assay (SEAP reporter in HEK293 cells)
Format: cell-based
Details: HEK293 cell line stably expressing human TLR7 and pNiFty2-SEAP reporter; SEAP induction after overnight incubation at 37° C., 0.1% (v/v) DMSO
Description: Recombinant human TLR7 was stably expressed in a HEK293 cell line already stably expressing the pNiFty2-SEAP reporter plasmid; integration of the reporter gene was maintained by selection with the antibiotic zeocin. The most common variant sequence of human TLR7 (represented by the EMBL sequence AF240467) was cloned into the mammalian cell expression vector pUNO and transfected into this reporter cell-line. Transfectants with stable expression were selected using the antibiotic blasticidin. In this reporter cell-line, expression of secreted alkaline phosphatase (SEAP) is controlled by an NFkB/ELAM-1 composite promoter comprising five NFkB sites combined with the proximal ELAM-1 promoter. TLR signaling leads to the translocation of NFkB and to activation of the promoter results in expression of the SEAP gene. TLR7-specific activation was assessed by determining the level of SEAP produced following overnight incubation of the cells at 37° C. with the standard compound in the presence of 0.1% (v/v) dimethylsulfoxide (DMSO). Concentration dependent induction of SEAP production by compounds was expressed as the concentration of compound which produced half of the maximal level of SEAP induction for that compound (pEC50)

| SMILES | pEC50 |
| --- | --- |
| CCCCOc1nc(N)c2[nH]c(=O)n(CCCN3CCCC3)c2n1 [Example 1, 6-Amino-2-butoxy-9-(3-pyrrolidin-1-ylpropyl)-7,9-dihydro-8H-purin-8-one] | 6.40 |
| CCCCOc1nc(N)c2[nH]c(=O)n(CCCN3CCC[C@H]3C(=O)N(C)C)c2n1 [Example 2, 1-[3-(6-Amino-2-butoxy-8-oxo-7,8-dihydro-9H-purin-9-yl)propyl]-N,N-dimethyl-L-prolinamide] | 5.50 |
| CCCCOc1nc(N)c2[nH]c(=O)n(CCCN3CCC[C@H]3COC)c2n1 [Example 3, 6-Amino-2-butoxy-9-{3-[(25)-2-(methoxymethyl)pyrrolidin-1-yl]propyl}-7,9-dihydro-8H-purin-8-one] | 5.60 |
| CCCCOc1nc(N)c2[nH]c(=O)n(CCCN(C)CC(=O)N(C)C)c2n1 [Example 4, N^2-[3-(6-Amino-2-butoxy-8-oxo-7,8-dihydro-9H-purin-9-yl)propyl]-N^1,N^1,N^2-trimethylglycinamide] | 6.60 |
